Laboratory results from ChEMBL document CHEMBL1158710, “Cytotoxic flavonoids from Platymiscium floribundum” (J Nat Prod, 2005).
≈ marks a conversion by molar mass, not a printed value.

Assays:
Format in all cases: functional, cell-based
CCRF-CEM = experiment: Cytotoxicity against human CEM cells after 72 hrs by MTT assay
HL-60 = experiment: Cytotoxicity against human HL60 cells after 72 hrs by MTT assay; conditions: HL-60, 72 h
HCT-8 = experiment: Cytotoxicity against human HCT8 cells after 72 hrs by MTT assay; conditions: HCT-8, 72 h
MCF7 = experiment: Cytotoxicity against human MCF7 cells after 72 hrs by MTT assay; conditions: MCF7, 72 h
B16 = experiment: Cytotoxicity against mouse B16 cells after 72 hrs by MTT assay; conditions: B16, 72 h

Structure (SMILES): COc1ccc2c(c1)O[C@H]1c3ccc(OC)cc3OC[C@@H]21 [HOMOPTEROCARPIN]
- IC50 (CCRF-CEM): 5.5 µg/mL (≈ 19.3 µM)
- IC50 (HL-60): 3.9 µg/mL (≈ 13.7 µM)
- IC50 (HCT-8): 6.4 µg/mL (≈ 22.5 µM)
- IC50 (MCF7): 18.5 µg/mL (≈ 65.1 µM)
- IC50 (B16): 5.2 µg/mL (≈ 18.3 µM)

Structure (SMILES): COc1cccc2c1C(=O)c1c(O)c3c(c(O)c1C2=O)C[C@@](O)(C(=O)CO)C[C@@H]3O[C@H]1C[C@H](N)[C@H](O)[C@H](C)O1 [DOXORUBICIN]
- IC50 (MCF7): 0.2 µg/mL (≈ 0.368 µM)

Structure (SMILES): O=C1C[C@@H](c2ccc(O)cc2)Oc2cc(O)ccc21 [LIQUIRTIGENIN]
- IC50 (CCRF-CEM): > 25 µg/mL
- IC50 (HL-60): 22.5 µg/mL (≈ 87.8 µM)
- IC50 (HCT-8): 19.5 µg/mL (≈ 76.1 µM)
- IC50 (MCF7): > 25 µg/mL
- IC50 (B16): 5 µg/mL (≈ 19.5 µM)

Structure (SMILES): COc1ccc2c(c1)OC1c3cc(OC)c(OC)cc3OCC21 (stereo unspecified)
- IC50 (CCRF-CEM): 0.6 µg/mL (≈ 1.91 µM)
- IC50 (HL-60): 0.1 µg/mL (≈ 0.318 µM)
- IC50 (HCT-8): 0.6 µg/mL (≈ 1.91 µM)
- IC50 (MCF7): 0.7 µg/mL (≈ 2.23 µM)
- IC50 (B16): 2.9 µg/mL (≈ 9.23 µM)

Structure (SMILES): COc1ccc2c(c1)OC1c3ccc(O)c(O)c3OCC21 (stereo unspecified) [VESTICARPAN]
- IC50 (CCRF-CEM): 7.3 µg/mL (≈ 25.5 µM)
- IC50 (HL-60): 6.9 µg/mL (≈ 24.1 µM)
- IC50 (HCT-8): 12.4 µg/mL (≈ 43.3 µM)
- IC50 (MCF7): 10 µg/mL (≈ 34.9 µM)
- IC50 (B16): 2.7 µg/mL (≈ 9.43 µM)
